Measured values taken from patent US20170267708A1, “C-4" POSITION SUBSTITUTED MACROLIDE DERIVATIVE” (priority 2014, published 2017).
≈ marks a conversion by molar mass, not a printed value. Where two headings read alike, the source gives them in different places.

Tests used:
[1] = tested on: 39 kinds of clinically isolated strains of Hemophilus influenzae; assay: Hemophilus influenzae susceptibility test; format: cell-based; conditions: 39 clinically isolated strains
Method: (§1) In vitro antibacterial activities of the compound of the present invention, the compound represented by the formula [1] of Example 1, against various test bacteria were measured according to the microbroth dilution method (CLSI method). The activities of the compound of Reference Example 4 represented by the formula [3] was similarly measured. The MIC values (minimum inhibitory concentration, μg/ml) for the test bacteria of the bacterium symbols A, B, C, D, E, F, G, H, I, J, K, and L are shown in Table 2.
Drug susceptibility of 39 kinds of clinically isolated strains of Hemophilus influenzae was evaluated in the same manner as that of Test Example 1.

[2] = tested on: Streptococcus pneumoniae 1028 strain; assay: MIC against the strain of Test Example 5; format: cell-based; conditions: notes for FIG. 3, mef(A) strain
Method: (§2) The notes for FIG. 3 are as follows. As for significant difference relative to the medium administration group, significance was determined by the Steel test, and the symbols * and ** mean p<0.05 and p<0.01, respectively.

[3] = tested on: Streptococcus pneumoniae 1101 strain; assay: MIC against the strain of Test Example 4; format: cell-based; conditions: notes for FIG. 2, erm(B) strain
Method: (§3) The notes for FIG. 2 are as follows. As for significant difference relative to the medium administration group, significance was determined by the Steel test, and the symbols * and ** mean p<0.05 and p<0.01, respectively.

[4] = tested on: Streptococcus pneumoniae 1028 strain; assay: Therapeutic effect test in erythromycin resistant pneumococcus (harboring mef(A) gene)-infected animals; format: in vivo, mice; conditions: for number of living cells in the lung: CBA/JN mice, 3 days after inoculation
Method: As a bacterium, the Streptococcus pneumoniae 1028 strain (clinically isolated strain) was used. A frozen stock of the strain used was added to the Todd Hewitt broth supplemented with 30 vol % inactivated horse serum, and the bacterium was cultured until the turbidity (OD600) became about 0.3. The culture was diluted with the Todd Hewitt broth supplemented with 30 vol % inactivated horse serum to prepare a bacterial suspension for inoculation. The bacterial suspension for inoculation (0.05 mL each) was intranasally administered to mice (CBA/JN, male, 5 weeks old) for infection. The inoculated bacterial amount was 3.45×10^4 CFU/mouse, or 3.90×10^4 CFU/mouse. From the next day of the inoculation, the compound of Example 1 represented by the formula [1] (3, 10, 30 and 100 mg/kg) or a medium (mixture of equivalent volumes of a 0.1 mol/L lactobionic acid solution and a 0.5 w/v % sodium hydrogencarbonate solution) was orally administered to the mice once a day for 2 days. The numbers of living cells in the lung observed 3 days after the inoculation are shown in FIG. 3 (each group consisted of 5 or 6 mice, average±standard error).
as §2

[5] = tested on: Streptococcus pneumoniae MSC08607; assay: In vitro antibacterial activity, microbroth dilution (CLSI method); format: cell-based; conditions: bacterium symbol F
Method: as §1

[6] = tested on: Streptococcus pyogenes MSC07812; assay: as above; format: cell-based; conditions: bacterium symbol J
Method: as §1

[7] = tested on: Streptococcus pneumoniae ATCC49619; assay: as above; format: cell-based; conditions: bacterium symbol D
Method: as §1

[8] = tested on: Streptococcus pneumoniae ATCC700904; assay: as above; format: cell-based; conditions: bacterium symbol G
Method: as §1

[9] = tested on: Streptococcus pyogenes MSC07811; assay: as above; format: cell-based; conditions: bacterium symbol K
Method: as §1

[10] = tested on: Streptococcus pneumoniae MSC07465; assay: as above; format: cell-based; conditions: bacterium symbol E
Method: as §1

[11] = tested on: Haemophilus influenzae MSC17946; assay: as above; format: cell-based; conditions: bacterium symbol B
Method: as §1

[12] = tested on: Streptococcus aureus ATCC29213; assay: as above; format: cell-based; conditions: bacterium symbol L
Method: as §1

[13] = tested on: Streptococcus pneumoniae MSC07365; assay: as above; format: cell-based; conditions: bacterium symbol H
Method: as §1

[14] = tested on: Streptococcus pyogenes ATCC12344; assay: as above; format: cell-based; conditions: bacterium symbol I
Method: as §1

[15] = tested on: Haemophilus influenzae NSC17960; assay: as above; format: cell-based; conditions: bacterium symbol C
Method: as §1

[16] = tested on: Haemophilus influenzae ATCC43095; assay: as above; format: cell-based; conditions: for MIC: Haemophilus influenzae, ATCC43095
Method: as §1

[17] = tested on: Streptococcus pneumoniae 1101 strain; assay: Therapeutic effect test in erythromycin resistant pneumococcus (harboring erm(B) gene)-infected animals; format: in vivo, mice; conditions: for number of living cells in the lung: CBA/JN mice, 3 days after inoculation, average±standard error
Method: As a bacterium, the Streptococcus pneumoniae 1101 strain (clinically isolated strain) was used. A frozen stock of the strain used was added to the Todd Hewitt broth supplemented with 30 vol % inactivated horse serum, and the bacterium was cultured until the turbidity (OD600) became about 0.3. The culture medium was diluted with the Todd Hewitt broth supplemented with 30 vol % inactivated horse serum to prepare a bacterial suspension for inoculation. The bacterial suspension for inoculation (0.05 mL each) was intranasally administered to mice (CBA/JN, male, 5 weeks old) for infection. The inoculated bacterial amount was 7.50×10^4 CFU/mouse, or 1.65×10^5 CFU/mouse. From the next day of the inoculation, the compound of Example 1 represented by the formula [1] […] The numbers of live cells in the lung observed 3 days after the inoculation are shown in FIG. 2 (each group consisted of 5 or 6 mice, average±standard error).
as §3

[18] = tested on: Haemophilus influenzae ATCC 43095 strain; assay: Therapeutic effectiveness in Haemophilus influenzae-infected animals; format: in vivo, mice; conditions: for number of living cells in the lung: ICR mice, 3 days after inoculation, average±standard error
Method: As a bacterium, the Haemophilus influenzae ATCC 43095 strain (bacterium symbol A) was used. Cells of the bacterium cultured overnight on a chocolate agar medium were collected, suspended in a Hemophilus susceptibility test medium or the brain heart infusion medium supplemented with Fildes Enrichment, and then cultured overnight. The culture was diluted with the Hemophilus susceptibility test medium or the brain heart infusion medium supplemented with Fildes Enrichment to prepare a bacterial suspension for inoculation. The bacterial suspension for inoculation (0.05 mL each) was intratracheobronchially administered to mice (ICR, male, 4 weeks old) for infection. The inoculated bacterial amount was 2.25×10^6 CFU/mouse, or 9.00×10^5 CFU/mouse. From the next day of the inoculation, the compound represented by the formula [1] of Example 1 (100 and 200 mg/kg) or a medium (mixture of equivalent volumes of a 0.1 mol/L lactobionic acid solution and a 0.5 w/v % sodium hydrogencarbonate solution) was orally administered to the mice once a day for 2 days. The numbers of living cells in the lung observed 3 days after the inoculation are shown in FIG. 1 (each group consisted of 6 mice, average±standard error).
The notes for FIG. 1 are as follows. As for significant difference relative to the medium administration group, significance was determined by the Steel test, and the symbols * and ** mean p<0.05 and p<0.01, respectively. The MIC value of the compound of Example 1 represented by the formula [I] was 4 μg/mL, and the MIC value of the compound of Reference Example 4 represented by the formula [3] was 4 μg/mL.
In the following descriptions, the numbers of living cells in the lung as the test results may be represented in terms of common logarithm of number of live cells in the lung (CFU/lung) (common logarithm is henceforth indicated as log).

[19] = 10 mg/kg orally once a day for 2 days, average±standard error
[20] = 30 mg/kg orally once a day for 2 days, 1.30 = lower than detection limit
[21] = 100 mg/kg orally once a day for 2 days, 1.30 = lower than detection limit
[22] = 30 mg/kg orally once a day for 2 days
[23] = 100 mg/kg orally once a day for 2 days
[24] = 200 mg/kg orally once a day for 2 days

SMILES: CCNC(=O)CN1C(=O)O[C@]2(C)[C@@H](CC)OC(=O)[C@H](C)[C@@H](O[C@H]3C[C@@](C)(OC)[C@@](O)(CN(C)CCN(C(C)C)C(C)C)[C@H](C)O3)[C@H](C)[C@@H](O[C@@H]3O[C@H](C)C[C@H](N(C)C)[C@H]3O)[C@@](C)(OC)C[C@@H](C)C(=O)[C@H](C)[C@@H]12 [Example 1]
- MIC50 [1]: 4 µg/mL (≈ 3.89 µM)
- MIC90 [1]: 8 µg/mL (≈ 7.78 µM)
- MIC value [2]: 0.12 µg/mL (≈ 0.117 µM)
- MIC value [3]: 0.25 µg/mL (≈ 0.243 µM)
- number of living cells in the lung ([4]; 3 mg/kg orally once a day for 2 days, average±standard error): 6.45±0.18 log (CFU/lung)
- number of living cells in the lung [4, 19]: 1.30±0.00 log (CFU/lung)
- number of living cells in the lung [4, 20]: 1.30±0.00 log (CFU/lung)
- number of living cells in the lung [4, 21]: 1.30±0.00 log (CFU/lung)
- therapeutic effectiveness relative to the compound of Reference Example 4 ([4]; overall conclusion of Test Example 5): superior
- MIC (minimum inhibitory concentration) [5]: 0.06 µg/mL (≈ 0.0583 µM)
- MIC (minimum inhibitory concentration) [6]: 0.12 µg/mL (≈ 0.117 µM)
- MIC (minimum inhibitory concentration) [7]: 0.06 µg/mL (≈ 0.0583 µM)
- MIC (minimum inhibitory concentration) [8]: 0.12 µg/mL (≈ 0.117 µM)
- MIC (minimum inhibitory concentration) [9]: 2 µg/mL (≈ 1.94 µM)
- MIC (minimum inhibitory concentration) [10]: 0.03 µg/mL (≈ 0.0292 µM)
- MIC (minimum inhibitory concentration) [11]: 8 µg/mL (≈ 7.78 µM)
- MIC (minimum inhibitory concentration) [12]: 1 µg/mL (≈ 0.972 µM)
- MIC (minimum inhibitory concentration) [13]: 4 µg/mL (≈ 3.89 µM)
- MIC (minimum inhibitory concentration) [14]: 0.06 µg/mL (≈ 0.0583 µM)
- MIC (minimum inhibitory concentration) [15]: 4 µg/mL (≈ 3.89 µM)
- MIC (minimum inhibitory concentration) ([16]; bacterium symbol A): 4 µg/mL (≈ 3.89 µM)
- MIC value ([16]; notes for FIG. 1, strain of Test Example 3): 4 µg/mL (≈ 3.89 µM)
- number of living cells in the lung [17, 22]: 4.14±0.19 log (CFU/lung)
- number of living cells in the lung [17, 23]: 2.28±0.24 log (CFU/lung)
- therapeutic effectiveness relative to the compound of Reference Example 4 ([17]; overall conclusion of Test Example 4): superior
- number of living cells in the lung [18, 23]: 3.54±0.49 log (CFU/lung)
- number of living cells in the lung [18, 24]: 2.83±0.53 log (CFU/lung)
- therapeutic effectiveness relative to the compound of Reference Example 4 ([18]; overall conclusion of Test Example 3): comparable

SMILES: CC[C@H]1OC(=O)[C@H](C)[C@@H](O[C@H]2C[C@@](C)(OC)[C@@](O)(CN(C)CCN(CC)CC)[C@H](C)O2)[C@H](C)[C@@H](O[C@@H]2O[C@H](C)C[C@H](N(C)C)[C@H]2O)[C@@](C)(OC)C[C@@H](C)C(=O)[C@H](C)[C@H]2N(CCCS(C)(=O)=O)C(=O)O[C@]12C [Reference Example 4, reference compound]
- MIC50 [1]: 4 µg/mL (≈ 3.86 µM)
- MIC90 [1]: 8 µg/mL (≈ 7.73 µM)
- MIC ([2]; Streptococcus pneumoniae, 1028STRAIN): 0.03 µg/mL (≈ 0.029 µM)
- MIC ([3]; Streptococcus pneumoniae, 1101STRAIN): 0.12 µg/mL (≈ 0.116 µM)
- number of living cells in the lung [4, 19]: 5.67±0.38 log (CFU/lung)
- number of living cells in the lung [4, 20]: 1.30±0.00 log (CFU/lung)
- number of living cells in the lung [4, 21]: 1.30±0.00 log (CFU/lung)
- MIC ([5]; Streptococcus pneumoniae, MSC08607, read-out: MIC (minimum inhibitory concentration)): 0.06 µg/mL (≈ 0.0579 µM)
- MIC ([6]; Streptococcus pyogenes, MSC07812, read-out: MIC (minimum inhibitory concentration)): 0.25 µg/mL (≈ 0.241 µM)
- MIC ([7]; Streptococcus pneumoniae, ATCC49619, read-out: MIC (minimum inhibitory concentration)): 0.03 µg/mL (≈ 0.029 µM)
- MIC ([8]; Streptococcus pneumoniae, ATCC700904, read-out: MIC (minimum inhibitory concentration)): 0.12 µg/mL (≈ 0.116 µM)
- MIC ([9]; Streptococcus pyogenes, MSC07811, read-out: MIC (minimum inhibitory concentration)): 4 µg/mL (≈ 3.86 µM)
- MIC ([10]; Streptococcus pneumoniae, MSC07465, read-out: MIC (minimum inhibitory concentration)): 0.03 µg/mL (≈ 0.029 µM)
- MIC ([11]; Haemophilus influenzae, MSC17946, read-out: MIC (minimum inhibitory concentration)): 8 µg/mL (≈ 7.73 µM)
- MIC ([12]; Streptococcus, ATCC29213, read-out: MIC (minimum inhibitory concentration)): 0.5 µg/mL (≈ 0.483 µM)
- MIC ([13]; Streptococcus pneumoniae, MSC07365, read-out: MIC (minimum inhibitory concentration)): 4 µg/mL (≈ 3.86 µM)
- MIC ([14]; Streptococcus pyogenes, ATCC12344, read-out: MIC (minimum inhibitory concentration)): 0.06 µg/mL (≈ 0.0579 µM)
- MIC ([15]; Haemophilus influenzae, NSC17960, read-out: MIC (minimum inhibitory concentration)): 4 µg/mL (≈ 3.86 µM)
- MIC ([16]; bacterium symbol A, read-out: MIC (minimum inhibitory concentration)): 4 µg/mL (≈ 3.86 µM)
- MIC ([16]; notes for FIG. 1, strain of Test Example 3, read-out: MIC value): 4 µg/mL (≈ 3.86 µM)
- number of living cells in the lung ([17]; 10 mg/kg orally once a day for 2 days): 5.86±0.12 log (CFU/lung)
- number of living cells in the lung [17, 22]: 5.22±0.16 log (CFU/lung)
- number of living cells in the lung [17, 23]: 3.65±0.36 log (CFU/lung)
- number of living cells in the lung [18, 23]: 4.37±0.27 log (CFU/lung)
- number of living cells in the lung [18, 24]: 2.53±0.23 log (CFU/lung)
